Results as given in PubChem BioAssay AID1918994 (Molecular Pharmacology Branch, DTP, NCI, 2023).

Test system: 292921-168-R-J2-PDC complex spheroid growth
Test: Anticancer human tumor 292921-168-R-J2-PDC patient-derived pancreatic carcinoma cell line growth inhibition [AhR]
Settings: for IC50: curve of first compound; for viability, T/C: stronger effect = lower value
In short: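 Agents were dosed in half-log steps down from roughly clinical Cmax, or from 10 microM where Cmax was unknown, alone and with AhR antagonists. Read-out: percent test/control growth of tumor spheroids containing HUVEC and MSC stromal cells.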

[1] = second compound 0.1 µM, first compound 0.0316 µM
[2] = second compound 0.1 µM, first compound 0.1 µM
[3] = second compound 0.1 µM, first compound 0.316 µM
[4] = second compound 0.1 µM, first compound 1 µM
[5] = second compound 0.316 µM, first compound 0.0316 µM
[6] = second compound 0.316 µM, first compound 0.1 µM
[7] = second compound 0.316 µM, first compound 0.316 µM
[8] = second compound 0.316 µM, first compound 1 µM
[9] = second compound 1 µM, first compound 0.0316 µM
[10] = second compound 1 µM, first compound 0.1 µM
[11] = second compound 1 µM, first compound 0.316 µM
[12] = second compound 1 µM, first compound 1 µM
[13] = second compound 3.16 µM, first compound 0.0316 µM
[14] = second compound 3.16 µM, first compound 0.1 µM
[15] = second compound 3.16 µM, first compound 0.316 µM
[16] = second compound 3.16 µM, first compound 1 µM
[17] = second compound 10 µM, first compound 0.0316 µM
[18] = second compound 10 µM, first compound 0.1 µM
[19] = second compound 10 µM, first compound 0.316 µM
[20] = second compound 10 µM, first compound 1 µM
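Also: spheroids exposed to compounds for seven days after three days of growth.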

With CC1COCCN1c1cc(-c2ccnn2C)c2ccnc(-c3ccn[nH]3)c2n1 (stereo not given) + Cc1cncc(-c2nc(NCCc3c[nH]c4ccccc34)c3ncn(C(C)C)c3n2)c1 the IC50 (second compound 0.1 µM) was 48 nM, the IC50 (second compound 0.316 µM) was 43.4 nM and the IC50 (second compound 1 µM) was 40.8 nM. The IC50 (second compound 3.16 µM) was 32.1 nM, the IC50 (second compound 10 µM) was < 3.16 nM and the viability, T/C (second compound 0.1 µM, first compound 0.00316 µM) was 87.5%. The viability, T/C (second compound 0.1 µM, first compound 0.01 µM) was 82.6%, the viability, T/C [1] was 60% and the viability, T/C [2] was 31.8%. It also gave a viability, T/C [3] of 22.5%, a viability, T/C [4] of 18.1% and a viability, T/C (second compound 0.316 µM, first compound 0.00316 µM) of 88.3%. For the same compound, the viability, T/C (second compound 0.316 µM, first compound 0.01 µM) was 78.6%, the viability, T/C [5] was 56.8% and the viability, T/C [6] was 32.7%. The viability, T/C [7] was 18.7%, the viability, T/C [8] was 17% and the viability, T/C (second compound 1 µM, first compound 0.00316 µM) was 74.5%. The viability, T/C (second compound 1 µM, first compound 0.01 µM) was 73%, the viability, T/C [9] was 55.2% and the viability, T/C [10] was 30%. It also gave a viability, T/C [11] of 18.7%, a viability, T/C [12] of 17.1% and a viability, T/C (second compound 3.16 µM, first compound 0.00316 µM) of 60.3%. The viability, T/C (second compound 3.16 µM, first compound 0.01 µM) was 64.1%, the viability, T/C [13] was 49.7% and the viability, T/C [14] was 25.4%. The viability, T/C [15] was 17.9%, the viability, T/C [16] was 17.9% and the viability, T/C (second compound 10 µM, first compound 0.00316 µM) was 41%. It also gave a viability, T/C (second compound 10 µM, first compound 0.01 µM) of 48.1%, a viability, T/C [17] of 44.9% and a viability, T/C [18] of 33.2%. The viability, T/C [19] was 25.8% and the viability, T/C [20] was 22.2%.
Compound COc1ccc([C@@H](O)c2cc(-c3ncnc4cc(N5CCOCC5)ccc34)c(F)cc2Cl)nn1 + Cc1cncc(-c2nc(NCCc3c[nH]c4ccccc34)c3ncn(C(C)C)c3n2)c1 has an IC50 (second compound 0.1 µM) of 2030 nM, an IC50 (second compound 0.316 µM) of 1630 nM and an IC50 (second compound 1 µM) of 1390 nM. The IC50 (second compound 3.16 µM) was 607 nM, the IC50 (second compound 10 µM) was < 31.6 nM and the viability, T/C [1] was 81.6%. It also gave a viability, T/C [2] of 85.2%, a viability, T/C [3] of 68.8% and a viability, T/C [4] of 67.2%. The viability, T/C (second compound 0.1 µM, first compound 3.16 µM) was 39.9%, the viability, T/C (second compound 0.1 µM, first compound 10 µM) was 25.8% and the viability, T/C [5] was 80.6%. For the same compound, the viability, T/C [6] was 78.2%, the viability, T/C [7] was 81% and the viability, T/C [8] was 59.7%. For the same compound, the viability, T/C (second compound 0.316 µM, first compound 3.16 µM) was 36.3%, the viability, T/C (second compound 0.316 µM, first compound 10 µM) was 26.2% and the viability, T/C [9] was 77.7%. The viability, T/C [10] was 79%, the viability, T/C [11] was 62.4% and the viability, T/C [12] was 58.7%. The viability, T/C (second compound 1 µM, first compound 3.16 µM) was 36.3%, the viability, T/C (second compound 1 µM, first compound 10 µM) was 26% and the viability, T/C [13] was 67.1%. It also gave a viability, T/C [14] of 58.5%, a viability, T/C [15] of 63.7% and a viability, T/C [16] of 40.2%. For the same compound, the viability, T/C (second compound 3.16 µM, first compound 3.16 µM) was 32.7%, the viability, T/C (second compound 3.16 µM, first compound 10 µM) was 23.1% and the viability, T/C [17] was 42.7%. It also gave a viability, T/C [18] of 39.5%, a viability, T/C [19] of 42.2% and a viability, T/C [20] of 32.3%. The viability, T/C (second compound 10 µM, first compound 3.16 µM) was 25.2% and the viability, T/C (second compound 10 µM, first compound 10 µM) was 20.5%.
